Data set [1] is described as follows: Static PET of ^51Mn^2+ injected in awake mice. In kind it is in vivo, ICR mice. Conditions: I.V. bolus non-anaesthetized, n=3, PET 60 minutes post-injection. As for the experimental part:
All animal studies were conducted under a protocol approved by the University of Wisconsin Institutional Animal Care and Use Committee. Non-fasted healthy ICR mice (Envigo, Indianapolis, Ind.) were divided into two groups. Mice in the first group (n=2) were anaesthetized by isoflurane (4% induction, 1% maintenance), tail-vein catheters were affixed, and mice were placed on the microPET/CT bed in a prone position (Inveon, Siemens Preclinical Solutions, Knoxville, Tenn.). Dynamic PET acquisition was started and ^51Mn^2+ was administered in a rapid bolus (3.3 MBq, 200 μl, 10% 0.01 M NaOAc/90% PBS) through the tail-vein catheter. Sixty minutes of dynamic PET data were acquired following ^51Mn^2+ administration. Due to the impact of volatile anesthetics on voltage-dependent calcium channel (VDCC) activation, the second group (n=3) received an intravenous (I.V.) bolus of ^51Mn^2+ (1.6 MBq, 200 μL, 10% 0.01 M NaOAc/90% PBS) while awake. 60 minutes post-injection mice were anaesthetized by isoflurane and a 10 minute static PET scan acquired. Following imaging, mice were immediately sacrificed by CO2 asphyxiation, and organs were extracted. Ex vivo biodistribution measurements were performed by gamma counting (Wizard 2480, PerkinElmer, Waltham, Mass.). […]

Data set [2] in a line: Dynamic PET of ^51Mn^2+ rapid IV bolus under isoflurane. In kind it is in vivo, ICR mice. As to the method: (§1) All animal studies were conducted under a protocol approved by the University of Wisconsin Institutional Animal Care and Use Committee. Non-fasted healthy ICR mice (Envigo, Indianapolis, Ind.) were divided into two groups. Mice in the first group (n=2) were anaesthetized by isoflurane (4% induction, 1% maintenance), tail-vein catheters were affixed, and mice were placed on the microPET/CT bed in a prone position (Inveon, Siemens Preclinical Solutions, Knoxville, Tenn.). Dynamic PET acquisition was started and ^51Mn^2+ was administered in a rapid bolus (3.3 MBq, 200 μl, 10% 0.01 M NaOAc/90% PBS) through the tail-vein catheter. Sixty minutes of dynamic PET data were acquired following ^51Mn^2+ administration. Due to the impact of volatile anesthetics on voltage-dependent calcium channel (VDCC) activation, the second group (n=3) received an intravenous (I.V.) bolus of ^51Mn^2+ (1.6 MBq, 200 μL, 10% 0.01 M NaOAc/90% PBS) while awake. 60 minutes post-injection mice were anaesthetized by isoflurane and a 10 minute static PET scan acquired. Following imaging, mice were immediately sacrificed by CO2 asphyxiation, and organs were extracted. Ex vivo biodistribution measurements were performed by gamma counting (Wizard 2480, PerkinElmer, Waltham, Mass.).
Dynamic PET data were binned into […] (12×5 s, 6×10 s, 6×30 s, 6×150 s, 6×300 s) and frames were reconstructed using non-scatter-corrected 3D ordered-subset expectation maximization followed by maximum a posteriori reconstruction (OSEM3D/MAP). Static PET data were reconstructed into a single frame by OSEM3D/MAP.

Data set [3] can be described thus: OLINDA dosimetry calculations for Mn-51 and daughter Cr-51. Also on record: species or system human. Conditions: OLINDA input. As for the experimental part:
Due to the rapid blood clearance of Mn^2+, OLINDA (Organ Level INternal Dose Assessment) dosimetry calculations were performed assuming instant compartment localization with organ activity fractions equal to those measured by ex vivo biodistribution herein. Based on the previously measured lengthy organ residence times of Mn^2+, it was also assumed that the effective organ clearance half-life (Ter) was equal to the radioactive half-life of Mn-51 (t1/2: 45.6 min). It was also assumed that Mn-51 injections were 100% radionuclidically pure. In regards to the daughter isotope, Cr-51 (t1/2: 27.7 d), it was assumed that the activity remained in same organ compartments as the parent Mn-51 biodistribution without biological clearance. Standard radiation weighting factors were used (γ=1, β=1). Based on these assumptions, effective dose (ED) and effective dose equivalent (EDE) (units of mSv/MBq) were calculated for a standard adult male and female.

Data set [4] in a line: Ex vivo ^51Mn biodistribution by gamma counting. In kind it is in vivo, ICR mice. The settings on record: awake I.V. bolus, gamma counting after 1 h PET. As for the experimental part:
as §1

The conditions of data set [5]: [^18F]-FDG study; cited from earlier work.
For data set [6] the following is noted: mice, other studies; cited from earlier work.

Bounds are passed on as bounds.

In the case of ^51MnCl2 [Mn-51], the “kidney uptake, static PET subjects” value in data set [1] was found to be 7.7±1.1 SUV. The “kidney uptake, anaesthetized dynamic PET subjects” value in data set [2] (I.V. bolus under isoflurane, n=2) was 13.7±2.6 SUV. The “duration of initial distribution” value in data set [2] (rapid IV bolus, dynamic PET) is given as less than 1 min. For the same compound, the “heart blood-pool clearance half-life” value in data set [2] (rapid IV bolus, heart TAC 0.375 to 3.25 minutes post-injection) came to 7.7 ± 0.7 s. The “Number of disintigrations, Total Body” value in data set [3] (Total Body) is on record as 8.70E−01 MBq-h/MBq. The “Number of disintigrations, Adrenals” value in data set [3] (source organ Adrenals) is 0.00E+00 MBq-h/MBq. Further, the “Number of disintigrations, Brain” value in data set [3] (source organ Brain) is 4.43E−03 MBq-h/MBq. For the same compound, the “Number of disintigrations, Breasts” value in data set [3] (source organ Breasts) is given as 0.00E+00 MBq-h/MBq. Moreover, the “Number of disintigrations, Cortical Bone” value in data set [3] (source organ Cortical Bone) is listed as 8.40E−04 MBq-h/MBq. Further, in data set [3] (source organ Gallbladder Contents), the “Number of disintigrations, Gallbladder Contents” value is 0.00E+00 MBq-h/MBq. Further, the “Number of disintigrations, Heart Contents” value in data set [3] (source organ Heart Contents) is listed as 0.00E+00 MBq-h/MBq. In data set [3] (source organ Heart Wall), the “Number of disintigrations, Heart Wall” value is on record as 2.37E−02 MBq-h/MBq. Also, the “Number of disintigrations, Kidneys” value in data set [3] (source organ Kidneys) is given as 6.91E−02 MBq-h/MBq. The “Number of disintigrations, LLI” value in data set [3] (source organ LLI) is recorded as 0.00E+00 MBq-h/MBq. Moreover, in data set [3] (source organ Liver), the “Number of disintigrations, Liver” value is given as 6.30E−02 MBq-h/MBq. The “Number of disintigrations, Lungs” value in data set [3] (source organ Lungs) is 1.68E−02 MBq-h/MBq. In addition, the “Number of disintigrations, Muscle” value in data set [3] (source organ Muscle) was 2.18E−03 MBq-h/MBq. Moreover, the “Number of disintigrations, Ovaries” value in data set [3] (source organ Ovaries) is 0.00E+00 MBq-h/MBq. The “Number of disintigrations, Pancreas” value in data set [3] (source organ Pancreas) is given as 4.11E−02 MBq-h/MBq. Besides, in data set [3] (source organ Red Marrow), the “Number of disintigrations, Red Marrow” value is listed as 0.00E+00 MBq-h/MBq. For the same compound, in data set [3] (source organ Small Intestine), the “Number of disintigrations, Small Intestine” value is given as 0.00E+00 MBq-h/MBq. Further, in data set [3] (source organ Spleen), the “Number of disintigrations, Spleen” value was 9.16E−03 MBq-h/MBq. Besides, the “Number of disintigrations, Stomach” value in data set [3] (source organ Stomach) is on record as 0.00E+00 MBq-h/MBq. The “Number of disintigrations, Testes” value in data set [3] (source organ Testes) is given as 0.00E+00 MBq-h/MBq. For the same compound, the “Number of disintigrations, Thymus” value in data set [3] (source organ Thymus) is listed as 0.00E+00 MBq-h/MBq. Also, in data set [3] (source organ Thyroid), the “Number of disintigrations, Thyroid” value is listed as 0.00E+00 MBq-h/MBq. Moreover, in data set [3] (source organ Trabecular Bone), the “Number of disintigrations, Trabecular Bone” value is recorded as 0.00E+00 MBq-h/MBq. For the same compound, in data set [3] (source organ ULI), the “Number of disintigrations, ULI” value is recorded as 6.42E−03 MBq-h/MBq. For the same compound, the “Number of disintigrations, Urinary Bladder Contents” value in data set [3] (source organ Urinary Bladder Contents) is given as 0.00E+00 MBq-h/MBq. In addition, in data set [3] (source organ Uterus/Uterine Wall), the “Number of disintigrations, Uterus/Uterine Wall” value is 0.00E+00 MBq-h/MBq. Further, in data set [4], the “Mn-51 uptake in heart, ex vivo biodistribution” value is 5.6±1.8 SUV; the “Mn-51 uptake in kidneys, ex vivo biodistribution” value is recorded as 9.2±0.7 SUV; the “Mn-51 uptake in pancreas, ex vivo biodistribution” value was 7.0±1.3 SUV.

Consider `OC[C@H]1OC(O)[C@H]([18F])[C@@H](O)[C@@H]1O` (some centres unmarked) [[^18F]-FDG], for which the “average dose for a study” value in data set [5] is recorded as 14.1 mSv.

For the compound `[63Zn+2]` [^63Zn^2+], the pancreatic uptake result in data set [6] was “significant”.

(Values after patent US20180271470A1, “METHODS FOR QUANTIFYING PANCREATIC BETA CELL FUNCTION AND MASS PROPERTIES WITH RADIOMANGANESE POSITRON EMISSION TOMOGRAPHY” (Wisconsin Alumni Research Foundation, priority 2017, published 2018).)
